US20180071242A1, “SUBSTITUTED ACYLANILIDES AND METHODS OF USE THEREOF” (University of Tennessee Research Foundation, priority 2006, published 2018)

Columns and labels:
CYP3A4 = molecular target: T1, CYP3A4 (Homo sapiens, UniProt P08684); test: CYP inhibition screening, recombinant enzyme (fluorescent-based) assay; assay type: in vitro ADME
T1 construct: purchased Gentest, BD Biosciences

CYP1A2 = molecular target: T2, CYP1A2 (Homo sapiens, UniProt P05177); test: as above
T2 sequence (P05177 1-516): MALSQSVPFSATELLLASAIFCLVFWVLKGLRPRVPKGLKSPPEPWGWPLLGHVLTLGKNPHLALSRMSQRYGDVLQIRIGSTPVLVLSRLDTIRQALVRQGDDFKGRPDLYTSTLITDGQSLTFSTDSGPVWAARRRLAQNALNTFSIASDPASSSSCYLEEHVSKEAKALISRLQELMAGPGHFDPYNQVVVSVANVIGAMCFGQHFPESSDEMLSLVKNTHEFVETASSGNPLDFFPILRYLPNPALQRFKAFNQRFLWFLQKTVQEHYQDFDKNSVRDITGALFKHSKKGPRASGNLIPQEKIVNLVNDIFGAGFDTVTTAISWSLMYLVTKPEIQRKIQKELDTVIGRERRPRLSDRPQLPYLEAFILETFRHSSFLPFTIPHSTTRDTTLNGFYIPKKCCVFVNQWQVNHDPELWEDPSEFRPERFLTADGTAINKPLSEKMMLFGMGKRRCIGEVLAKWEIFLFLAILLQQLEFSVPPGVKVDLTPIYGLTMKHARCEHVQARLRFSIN
Experimental: (§1) Human recombinant CYP enzymes and fluorescence-based substrates were used to determine the IC50 values of S-(I) against CYP3A4, 2D6, 2C19, 2C9, and 1A2.
(§2) CYP inhibition screening procedures were performed essentially according to the manufacturer's instructions (Gentest, BD Biosciences, Waltham, Mass.). Briefly, CYP enzyme inhibition was measured using human cDNA-expressed CYP3A4, 2D6, 2C19, 2C9, and 1A2 enzymes. Analogs of the model substrate coumarin were utilized for each isoenzyme.
(§3) The concentration of acetonitrile was kept constant at 0.4%, and the reaction was carried out at 37° C. for 30 minutes.
(§4) For IC50 determination, data was fitted using the non-linear regression equation “sigmoidal dose response, variable slope” defined as: Y=Bottom+(Top-Bottom)/(1+10̂((Log EC50−X)*HillSlope)) where X is the logarithm of concentration of the indicated compound, and Y is the response.

CYP2D6 = CYP2D6 (Homo sapiens, UniProt P10635); test: as above
Chain of CYP2D6 (P10635 whole entry): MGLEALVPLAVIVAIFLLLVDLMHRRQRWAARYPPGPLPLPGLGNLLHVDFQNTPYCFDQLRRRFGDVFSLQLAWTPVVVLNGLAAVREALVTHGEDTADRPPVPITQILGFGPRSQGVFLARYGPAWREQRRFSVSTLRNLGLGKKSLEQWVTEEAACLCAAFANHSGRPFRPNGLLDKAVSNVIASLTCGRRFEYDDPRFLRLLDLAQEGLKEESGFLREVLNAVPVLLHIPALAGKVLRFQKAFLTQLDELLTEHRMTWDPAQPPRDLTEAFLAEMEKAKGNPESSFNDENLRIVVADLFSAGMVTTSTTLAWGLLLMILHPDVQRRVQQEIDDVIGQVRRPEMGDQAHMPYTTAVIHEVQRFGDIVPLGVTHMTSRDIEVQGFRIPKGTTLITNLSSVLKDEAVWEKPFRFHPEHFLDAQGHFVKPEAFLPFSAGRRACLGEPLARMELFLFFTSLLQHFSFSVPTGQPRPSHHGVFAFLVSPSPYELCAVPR
Experimental: as §1, §2, §3, §4

GR = molecular target: T3, GR (Rattus norvegicus, UniProt P06536); test: Transient transfection luciferase transactivation assay in HEK-293 cells; assay type: cell-based; details: for GR-mediated transactivation, agonist mode (in words): all tested concentrations; for Inhibition of dexamethasone-induced GR-mediated transactivation, antagonist mode (in words): with 1 nM dexamethasone
T3 construct: expressed in transfected cells; host or cells: HEK-293
T3 sequence (P06536 1-795): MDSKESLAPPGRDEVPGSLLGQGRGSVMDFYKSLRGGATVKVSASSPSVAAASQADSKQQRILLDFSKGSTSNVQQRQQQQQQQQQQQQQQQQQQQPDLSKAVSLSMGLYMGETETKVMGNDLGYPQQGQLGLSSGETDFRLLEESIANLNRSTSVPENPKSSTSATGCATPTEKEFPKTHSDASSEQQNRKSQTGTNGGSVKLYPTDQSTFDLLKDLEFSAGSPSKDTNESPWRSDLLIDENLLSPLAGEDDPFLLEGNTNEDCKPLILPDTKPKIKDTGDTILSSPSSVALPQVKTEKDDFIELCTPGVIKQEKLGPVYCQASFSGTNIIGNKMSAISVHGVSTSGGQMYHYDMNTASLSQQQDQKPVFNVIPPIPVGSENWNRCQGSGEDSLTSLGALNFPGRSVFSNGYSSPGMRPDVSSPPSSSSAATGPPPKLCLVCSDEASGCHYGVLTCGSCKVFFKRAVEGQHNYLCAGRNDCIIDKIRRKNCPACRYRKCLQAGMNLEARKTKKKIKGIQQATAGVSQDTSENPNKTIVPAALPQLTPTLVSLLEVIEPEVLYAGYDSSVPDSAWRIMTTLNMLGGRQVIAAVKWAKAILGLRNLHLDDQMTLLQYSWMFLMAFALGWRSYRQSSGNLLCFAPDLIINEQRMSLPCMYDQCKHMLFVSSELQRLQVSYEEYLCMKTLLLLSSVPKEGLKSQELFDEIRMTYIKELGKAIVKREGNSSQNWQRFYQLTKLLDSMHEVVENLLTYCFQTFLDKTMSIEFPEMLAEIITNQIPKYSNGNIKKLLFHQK

Pharmacokinetics in dogs = assay type: in vivo; details: beagle dogs
Experimental: In order to determine the pharmacokinetics of the S-isomer of the compound of formula (I) [S-(I)], the compound was administered to beagle dogs perorally, and circulating plasma levels, terminal elimination half-life (t1/2), total body clearance (CL), terminal volume distribution (Vz) and absolute bioavailability (F %) (Table 4) were determined.

[1] = tested on: DMD (−/−) UTRN (−/−) mice; test: Double knockout mouse model of Duchenne muscular dystrophy; details: 10 mg/kg/day, data cumulative across the SARM groups

T1 sequence (P08684 whole entry): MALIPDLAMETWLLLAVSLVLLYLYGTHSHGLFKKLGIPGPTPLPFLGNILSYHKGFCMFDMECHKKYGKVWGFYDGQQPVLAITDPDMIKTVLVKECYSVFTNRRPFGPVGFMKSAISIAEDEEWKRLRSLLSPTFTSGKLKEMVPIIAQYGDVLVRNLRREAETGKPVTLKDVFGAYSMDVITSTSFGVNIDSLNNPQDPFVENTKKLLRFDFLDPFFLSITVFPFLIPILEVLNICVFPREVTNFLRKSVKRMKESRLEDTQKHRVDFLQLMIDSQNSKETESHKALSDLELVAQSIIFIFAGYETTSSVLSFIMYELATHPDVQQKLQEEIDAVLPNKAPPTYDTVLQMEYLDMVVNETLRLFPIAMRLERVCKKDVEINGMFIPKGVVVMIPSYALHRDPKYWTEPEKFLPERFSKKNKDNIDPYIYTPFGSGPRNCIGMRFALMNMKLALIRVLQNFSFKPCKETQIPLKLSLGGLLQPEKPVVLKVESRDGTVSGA

Row | Compound | IC50 (CYP3A4) | IC50 (CYP1A2) | IC50 (CYP2D6) | GR-mediated transactivation, agonist mode (in words) (GR) | Inhibition of dexamethasone-induced GR-mediated transactivation, antagonist mode (in words) (GR) | Absorption (in words) (Pharmacokinetics in dogs; perorally) | bioavailability (Pharmacokinetics in dogs; dog, plasma, oral, perorally, read-out: F%, absolute bioavailability) | clearance (Pharmacokinetics in dogs; dog, plasma, oral, read-out: CL, total body clearance) | Vd (Pharmacokinetics in dogs; dog, plasma, oral, read-out: Vz, terminal volume distribution) | half-life (Pharmacokinetics in dogs; dog, plasma, oral, read-out: t½, terminal elimination half-life (converted)) | Ability to be ambulatory (in words) [1] | Deterioration of body weight (in words) [1] | Deterioration of grip strength (in words) [1] | Deterioration of lean mass (in words) [1]
1 | C[C@](O)(COc1ccc(C#N)cc1)C(=O)Nc1ccc(C#N)c(Cl)c1 [S-(I), (S)—N-(3-chloro-4-cyanophenyl)-3-(4-cyanophenoxy)-2-hydroxy-2-methylpropanamide] | > 20 µM | > 20 µM | > 20 µM | failed to activate | failed to alter | rapidly and completely absorbed | 96.2% | 1.68 ± 0.13 mL/min/kg | 1.52 ± 0.142 L/kg | 10.4 ± 0.5 h | enhanced the ability of these mice to be ambulatory | delayed the deterioration | delayed the deterioration | delayed the deterioration
2 | C[C@](O)(COc1ccc(Cl)cc1)C(=O)Nc1ccc(C#N)c(C(F)(F)F)c1 [S-(II)] | > 20 µM | > 20 µM | > 20 µM | did not induce | not inhibited | – | – | – | – | – | – | – | – | –
3 | C[C@](O)(COc1ccc(F)cc1)C(=O)Nc1ccc(C#N)c(C(F)(F)F)c1 [S-(III)] | > 20 µM | > 20 µM | > 20 µM | did not induce | not inhibited | – | – | – | – | – | – | – | – | –
